# Test system: S. aureus
# Experiment: S. aureus bacterial proliferation assay
# Assay type: cell-based
# Details: Staphylococcus aureus; Table 3; cation adjusted BHI media, OD600 at 6-8 h; read-out: S. aureus Proliferation EC50
# Outline: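 Growth in BHI with 25 mg/L Ca2+ and 12.5 mg/L Mg2+; log-phase cultures diluted to OD600 0.017 and exposed to compounds at 100 μM–46 nM (3-fold series). Stagnant 37 °C incubation, OD600 read at 6–8 h, corrected with bacteria-free plates; EC50 by variable-slope nonlinear regression.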
row,SMILES,EC50 [µM]
1,"COc1ccc(Cl)cc1C(=O)Nc1ccc(Oc2ccccc2)c(Cl)c1 [Compound 90, 5-chloro-N-(3-chloro-4-phenoxyphenyl)-2-methoxybenzamide]",> 100
2,"COc1ccc(Cl)cc1C(=O)Nc1ccc(Oc2ccccc2)cc1 [Compound 92, 5-chloro-2-methoxy-N-(4-phenoxyphenyl)benzamide]",> 100
3,"O=C(Nc1ccccc1)c1cc(Cl)ccc1O [Compound 117, 5-chloro-2-hydroxy-N-phenylbenzamide]",2.2
4,"COC(=O)c1ccc(NC(=O)c2cc(Cl)ccc2OC)cc1 [Compound 106, methyl 4-(5-chloro-2-methoxybenzamido)benzoate]",> 100
5,"COc1ccc(Cl)cc1C(=O)Nc1ccc(C(C#N)c2ccccc2)cc1 (centres unmarked) [Compound 84, 5-chloro-N-(4-(cyano(phenyl)methyl)phenyl)-2-methoxybenzamide]",> 100

# Same assay, conditions: Table 2; cation adjusted BHI media, OD600 at 6-8 h
row,SMILES,S. aureus Proliferation EC50 [µM]
1,"COc1ccc(C(=O)Nc2cc(Cl)c(C(C#N)c3ccc(Cl)cc3)cc2C)cc1 (centres unmarked) [Compound 63, N-(5-chloro-4-((4-chlorophenyl)(cyano)methyl)-2-methylphenyl)-4-methoxybenzamide]",> 100
2,"Cc1ccc(O)c(C(=O)Nc2cc(Cl)c(C(C#N)c3ccc(Cl)cc3)cc2C)c1 (centres unmarked) [Compound 60, N-(5-chloro-4-((4-chlorophenyl)(cyano)methyl)-2-methylphenyl)-2-hydroxy-5-methylbenzamide]",1.3
3,"Cc1cc(C(C#N)c2ccc(Cl)cc2)c(Cl)cc1NC(=O)c1cccc([N+](=O)[O-])c1 (centres unmarked) [Compound 68, N-(5-chloro-4-((4-chlorophenyl)(cyano)methyl)-2-methylphenyl)-3-nitrobenzamide]",> 100

# From patent publication US20230406831A1, “COMPOUNDS AND METHODS OF INHIBITING BACTERIAL CHAPERONIN SYSTEMS” (THE TRUSTEES OF INDIANA UNIVERSITY, priority 2020, published 2023)
